The record followed here is patent US20140243374A1, “Novel Sulfonamides” (The Brigham and Women's Hospital, Inc., priority 2011, published 2014).

In data set [1] the target is T1, γ-secretase (cleavage of APP, Aβ42) (Homo sapiens, UniProt P49768).
T1 construct: endogenous in cells; host or cells: HEK AP-GL-T16 luciferase reporter cells (tetracycline-induced APP substrate)
Nature of the data set: Aβ (1-42) cellular assay (Aβ ELISA, HEK AP-GL-T1 6 cells). It is filed as cell-based. The following applies: cellular Aβ42 ELISA, 24 h compound treatment. The method in brief:
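HEK AP-GL-T1 6 cells, with APP processing induced by tetracycline at compound addition 24 h post-plating. After 24 h of treatment, Aβ42 in conditioned medium (protease inhibitors added, frozen) was quantified by fluorometric sandwich ELISA (ex 460/em 560 nm) against an Aβ peptide standard curve.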

Data set [2] addresses T2, γ-secretase (cleavage of Notch) (Homo sapiens, UniProt P49768).
T2 construct: endogenous in cells; host or cells: U2OS luciferase reporter cells with Tet-on Notch
In words: Notch cellular assay (luciferase reporter U2OS cells). In kind it is cell-based. As to conditions: for IC50: U2OS luciferase reporter cells; for Notch Luc/Aβ42: ratio Notch luciferase IC50 to Aβ42 IC50. The procedure:
This assay was used to determine if the compounds of interest inhibit the cleavage of Notch by γ-secretase in cells. A U2OS cell line in which the luciferase expression is adjusted by active Notch was used in this assay Notch expression is adjusted using Tet-on promoter. Luciferase reporter U2OS cells are plated at 1000 cells/well in 96 well plates in DMEM containing 100 μg/mL hygromycin, 15 μg/mL blasticidin and 1 μg/mL Tetracycline. Compounds were added 24 h after plating and the cells are lysed 6 days after adding compounds. Luciferase expression was performed using Steady-Glo Luciferase Assay System (Promega).

Data set [3] has as its target T3, γ-secretase (Notch cleavage activity) (Homo sapiens, UniProt P49768).
T3 construct: endogenous in cells; host or cells: SUP-T1 cells
Nature of the data set: Cleaved Notch1 Sandwich ELISA (SUP-T1 cell line). It is filed as cell-based. As to conditions: for IC50: SUP-T1 cells, 16 h; for Notch Elisa/Aβ42: ratio Notch Elisa IC50 to Aβ42 IC50. The method in brief: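 SUP-T1 cells endogenously express a truncated Notch fragment that serves as γ-secretase substrate. Cells at 1.0×10^6 cells/mL in RPMI-1640 with 10% FBS were treated 16 h with serially diluted compounds in DMSO. Cleaved Notch intracellular domain was quantified by sandwich ELISA on equal protein amounts.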

Values joined by “and” are separate entries in the source; they are usually repeats but may differ in a detail not shown here. Equal entries are not always repeated.

`CC1CCCCC1N(Cc1ccc(C(=O)O)cc1)S(=O)(=O)c1ccc(Cl)cc1` (stereo not shown) [Example 3, 4-((4-Chloro-N-(2-methylcyclohexyl)phenylsulfonamido)methyl)benzoic acid] registered a melting point of 180 to 182 °C. Besides, in data set [1], the IC50 was 7 nM and 12.7 nM and 3.8 nM. In addition, in data set [2], the 50% inhibitory concentration (IC50) was 5000 nM and 4400 nM and 4300 nM; the “Notch Luc/Aβ42” value came out at 585. Besides, in data set [3], the IC50 came out at 350 nM and the “Notch Elisa/Aβ42” value worked out at 45.

In turn, `CC1CCCCC1N(Cc1ccc(C(=O)N[C@@H](C)CO)cc1)S(=O)(=O)c1ccc(Cl)cc1` (stereo partly drawn) [Example 5, 4-((4-Chloro-N-(2-methylcyclohexyl)phenylsulfonamido)methyl)-N—((S)-1-hydroxypropan-2-yl)benzamide] displayed a melting point of 95 to 97 °C. The IC50 in data set [1] was 1.1 nM and 1.8 nM. Moreover, in data set [2], the midpoint of inhibition, the IC50, lay at 2300 nM and the “Notch Luc/Aβ42” value worked out at 1586. In addition, in data set [3], the concentration for half-maximal inhibition (IC50) came to 160 nM and the “Notch Elisa/Aβ42” value is 110.

`CC1CCCCC1N(Cc1ccc(C(=O)NCCO)cc1)S(=O)(=O)c1ccc(Cl)cc1` (stereo not shown) [Example 6, 4-((4-Chloro-N-(2-methylcyclohexyl)phenylsulfonamido)methyl)-N-(2-hydroxyethyl)benzamide] had a melting point of 105 to 107 °C. The molecule further gave an IC50 in data set [1] of 0.83 nM. Moreover, in data set [2], the half-maximal inhibitory concentration (IC50) turned out to be 990 nM and the “Notch Luc/Aβ42” value was determined as 1192. For the same molecule, in data set [3], 130 nM corresponded to half-maximal inhibition (IC50) and the “Notch Elisa/Aβ42” value is on record as 157.

The molecule `CC[C@@H](C1CCCCC1)N(Cc1ccc(C(=O)O)cc1)S(=O)(=O)c1ccc(Cl)cc1` [Example 15, (S)-4-((4-Chloro-N-(1-cyclohexylpropyl)phenylsulfonamido)methyl)benzoic acid] had a melting point of 147 to 149 °C. In data set [1], this molecule returned an IC50 of 28 nM. For the same molecule, in data set [2], inhibition was half-maximal at 20000 nM (IC50) and the “Notch Luc/Aβ42” value stood at 715.

On to `CC[C@@H](C1CCCC1)N(Cc1ccc(C(=O)O)cc1)S(=O)(=O)c1ccc(Cl)cc1` [Example 20, (S)-4-((4-Chloro-N-(1-cyclopentylpropyl)phenylsulfonamido)methyl)benzoic acid], for which the melting point lay in the range of 67 to 69 °C. The same molecule had an IC50 in data set [1] of 50 nM. In addition, in data set [2], the IC50 was 40000 nM and 100000 nM; the “Notch Luc/Aβ42” value was 1400.

Take `CC1CCCCC1N(Cc1ccc(C(=O)O)cc1)S(=O)(=O)c1ccc(C(F)(F)F)nc1` (stereo not shown) [Example 32, 4-((N-(2-Methylcyclohexyl)-6-(trifluoromethyl)pyridine-3-sulfonamido)methyl)benzoic acid]: the melting point was in the range of 117 to 119 °C. The molecule further registered a concentration for half-maximal inhibition (IC50) in data set [1] of 28.4 nM. In data set [2], the IC50 was found to be 4800 nM and the “Notch Luc/Aβ42” value is 169.

`CC1CCCCC1N(Cc1ccc(C(=O)NC(C)(C)C(=O)O)cc1)S(=O)(=O)c1ccc(Cl)cc1` (stereo not shown) [Example 34, 2-(4-((4-Chloro-N-(2-methylcyclohexyl)phenylsulfonamido)methyl)benzamido)-2-methylpropanoic acid] gave a melting point of 121 to 122 °C. Further, 135 nM corresponded to half-maximal inhibition in data set [1] (IC50). Moreover, in data set [2], half-maximal inhibition (IC50) required 8090 nM and the “Notch Luc/Aβ42” value amounted to 60.

For the molecule `CC1CCCCC1N(Cc1ccc(C(=O)NC(C)(C)CO)cc1)S(=O)(=O)c1ccc(Cl)cc1` (stereo not shown) [Example 37, 4-((4-Chloro-N-(2-methylcyclohexyl)phenylsulfonamido)methyl)-N-(1-hydroxy-2-methylpropan-2-yl)benzamide], the melting point fell in the range of 116 to 117 °C. Besides, in data set [1], it took 20.9 nM to reach half-maximal inhibition (IC50). This molecule gave an IC50 in data set [2] of 2540 nM.
